Measured values as given in US9623077B2, “Use of peptide for alleviating pain” (Academia Sinica, priority 2015, dated 2017).
Where no end group is shown, it is not given here.

Experiments:
[1] = system: CCI rats; type: in vivo, rat; conditions: i.t. administration, from peak effects of % MPE
Method: Implantation of i.t. catheters in rats was performed.
Thermal hyperalgesia was examined using an IITC analgesiometer (IITC Inc., Woodland Hills, Calif., USA). […] Paw withdrawal latency (PWL) in seconds was measured with a cutoff time of 30 seconds. PWL was recorded at 30, 60, 90, 120, 150, and 180 minutes after PCD-1 or gabapentin injection. PWL (s) was transformed to a percentage of the maximum possible effect (% MPE) using the following formula: % MPE=(post-drug latency−baseline)/(cutoff−baseline)×100%, where the post-drug latency was the response measured at 0, 30, 60, 90, 120, 150, or 180 minutes after injection of PCD-1, gabapentin, or vehicle. The baseline was the response measured immediately prior to i.t. injection, and the cutoff time was 30 seconds.

[2] = system: CCI rats
Method: The rat model of chronic constriction injury (CCI) was performed by following the previous reports or research. Implantation of i.t. catheters in rats was performed. The i.t. catheters (PE5 tubes: 9-cm long, 0.008-inch inner diameter, 0.014-inch outer diameter; Spectranetics, Colorado Springs, Colo., USA) were inserted via the atlanto-occipital membrane into the i.t. space at the level of the lumbar enlargement of the spinal cord, and externalized and fixed to the cranial aspect of the head. Five days after i.t. catheterization, CCI or mononeuropathy was induced by following a previous report. The 5-mm-long nerve segment of right sciatic nerve at the mid-thigh level was isolated from the surrounding tissues. Four ligatures (4-0 chromic gut) were loosely tied around the sciatic nerve with 1-mm intervals, and the wound was closed with sutures.
The narrow beam used in the present invention was a wooden beam 80 cm in length and 2.5 cm in width, suspended 100 cm from the ground by wooden supports at either end. Foam padding (1 m wide and approximately 12 cm thick) was placed beneath the beam to prevent injury to the rat in case of a fall. The cutoff time to cross the beam was 15 seconds for each rat. Rats were pre-trained before the test.

[3] = system: RAW264.7 cells; parameters: dose or concentration left out as unconfirmed; conditions: PCD-1 for 24 h
Method: (A) RAW264.7 cells are treated with the indicated doses of PCD-1 for 24 h, and cell viability is then measured by Alamar blue assay to assess cytotoxicity.
In order to investigate regulation of iNOS and COX-2 by PCD-1, mouse macrophage and immune cells were treated with non-cytotoxic doses of PCD-1, and the effects on protein expression were examined.

[4] = system: rats; conditions: rats treated with PCD-1

## NCC1(CC(=O)O)CCCCC1 [gabapentin, reference compound]
[1]
  median effective dose (ED50) for anti-thermal hyperalgesia: 2.3 ± 1.5 µg

## FFHHIFRGIVHVGKTIHRLVTG [PCD-1, Piscidin-1] [listing 1 of 2 here]
[2]; CCI rats+PCD-1 (20 μg) vs CCI rats+vehicle, 0 to 480 minutes
  latency to initiate crossing and total time to cross the beam: No significant differences
[2]; rats, i.t. 20 μg
  locomotor function: did not affect
[3]
  Proliferation of RAW264.7 cells (cell viability, Alamar blue): unaffected
[4]
  alterations of external behavior: nor did it result in any obvious alterations

## FFHHIFRGIVHVGKTIHRLVTG [PCD-1, Piscidin-1] [listing 2 of 2 here]
[1]
  median effective dose (ED50) for anti-thermal hyperalgesia: 9.5 ± 3.2 µg
